Assay results from US20230330109A1, “COMPOUND FOR PREVENTING AND TREATING LIVER DISEASES AND PHARMACEUTICAL USE THEREOF” (CHENGDU BIOBEL COMPANY LIMITED, priority 2020, published 2023).
Where a name gives a salt, the structure may show the parent alone.

How the values were obtained:
Format in all cases: in vivo
male Wistar rats = experiment: Thioacetamide-induced hepatic fibrosis/cirrhosis in rats, Sirius Red fibrosis area; conditions: for decrease rate of fibrosis area: compared with the rat cirrhosis model group, dosages as in Table 4; for Hepatic fibrosis area (%): thioacetamide rats, oral, Sirius Red, dosage 160 mg/kg (I-1, HTD1801) or 80 mg/kg (nor-UDCA, berberine hydrochloride)
Description: 60 male Wistar rats (weighing 180-220 g) were divided into 6 groups, with 10 rats in each group, and the rats were provided by Chengdu Dossy Experimental Animal Co., Ltd. In the experiment, the compound of the present invention and the positive control drug nor-UDCA were first ground in a proper amount of Tween, and then diluted to the pre-determined concentration with 0.5% carboxymethyl cellulose (CMC) sodium.
The rat liver fibrosis model was established by inducing with thioacetamide. Rats were intraperitoneally injected with thioacetamide at a dose of 200 mg/kg, three times a week, for 12 weeks. Four weeks after induction with thioacetamide, the compound of the present invention was orally administered to the test groups, while the blank group and the model group were given the same amount of CMC suspension. Among them, every morning, rats in each test group were given 160 mg/kg of compound I-1, 80 mg/kg of nor-UDCA, 80 mg/kg of berberine hydrochloride, and 160 mg/kg of positive control HTD1801. After experiment, all rats were euthanized, and their livers were taken out.
The liver tissue was fixed with 10% formaldehyde solution and embedded in paraffin. The fixed liver tissue was sectioned with a thickness of about […], and then stained with Hematoxylin-Eosin (HE) and Sirius Red. Sirius Red staining was used for morphological analysis and to determine the percentage of liver tissue affected by its fibrosis. The image of the section was collected by using the microscopic imaging system. In order to make the results more accurate, 15 positive visual fields of Sirius Red staining were randomly selected from each slice to calculate the proportion of liver fibrosis area, which was used in statistical analysis.

male C57BL/6N mice [1] = experiment: Liver histopathological examination in MCD diet FLD mice (Experimental Example 1); design: scale not given here; conditions: liver histopathology, dosage 300 mg/kg (I-1, HTD1801) or 150 mg/kg (nor-UDCA, berberine hydrochloride)
Description: (§1) 48 male C57BL/6N mice (8-week-old) were chosen, in which 8 mice were randomly divided into the blank group, fed with normal diet, while the other 40 mice were all subjected to establishing models. There was an adaptation period of 6 days before modeling. Then, mice were fed with the mixture of MCD and MCS (TROPHIC Animal Feed High-Tech Co. Ltd, Nantong, Jiangsu, China, TP3005GS, high-fat feed) in a ratio of 1:2, 1:1 and 2:1, and each ratio of diet was given to the mice for two days in the order of 1:2, 1:1 and 2:1. After that, mice were given MCD feed for 28 days (TROPHIC Animal Feed High-Tech Co. Ltd, Nantong, Jiangsu, China, TP3005G, methionine- and choline-deficient diet). On the 28th day, mice were randomly divided into five groups, namely model group, compound I-1 group, norUDCA group, berberine hydrochloride group, and HTD1801 group, eight mice for each group. After grouping, each treatment group was further fed customized MCD diet containing drugs for 20 days, while the model group was fed the same diet as the previous. All groups were fed the isocaloric diet. After the last administration on the 21st day, the mice were fasted for 16 h (but free access to water) and weighed. Then, blood was taken from the femoral artery and centrifuged to separate the serum, which was stored at low temperature of −30° C., ready for testing the biochemical indexes of the serum. In addition, the liver was taken, and two pieces of left lobe were taken for each mouse, which were placed in 10% neutral formalin solution, respectively. After treatment, liver histopathological examination was performed.

male C57BL/6N mice [2] = experiment: Serum biochemical indexes in MCD diet FLD mice (Experimental Example 1); design: AST / ALT / ALP: unit not given here; conditions: for decrease rate of ALP / decrease rate of ALT / decrease rate of AST: compared with the model group, dosages as in Table 1; for ALP / ALT / AST: serum, MCD diet mice, drug in diet for 20 days, dosage 300 mg/kg/d (I-1, HTD1801) or 150 mg/kg/d (nor-UDCA, berberine hydrochloride)
Description: as §1

male C57BL/6N mice [3] = experiment: Hepatic fat staining in MCD diet FLD mice (Experimental Example 1); conditions: dosage 300 mg/kg (I-1, HTD1801) or 150 mg/kg (nor-UDCA, berberine hydrochloride)
Description: as §1

Compound | decrease rate of fibrosis area (male Wistar rats) [%] | Hepatic fibrosis area (%) (male Wistar rats) | Score Edema (male C57BL/6N mice [1]) | Score Inflammation cell infiltration (male C57BL/6N mice [1]) | Score Necrosis (male C57BL/6N mice [1]) | Score Steatosis (male C57BL/6N mice [1]) | decrease rate of ALP (male C57BL/6N mice [2]) [%] | decrease rate of ALT (male C57BL/6N mice [2]) [%] | decrease rate of AST (male C57BL/6N mice [2]) [%] | ALP (male C57BL/6N mice [2]) | ALT (male C57BL/6N mice [2]) | AST (male C57BL/6N mice [2]) | Hepatic fat staining Scores (male C57BL/6N mice [3])
COc1ccc2cc3[n+](cc2c1OC)CCc1cc2c(cc1-3)OCO2 [Berberine hydrochloride, berberine hydrochloride] | 15.17 | 15.14 ± 3.67 | 1.8 | 1.9 | 2.1 | 2.2 | 15.10 | 12.09 | 1.86 | 193.4 ± 32.9 | 942.4 ± 64.5 | 768.4 ± 38.1 | 1.9
COc1ccc2cc3[n+](cc2c1OC)CCc1cc2c(cc1-3)OCO2.C[C@H](CCC(=O)[O-])[C@H]1CC[C@H]2[C@@H]3[C@@H](O)C[C@@H]4C[C@H](O)CC[C@]4(C)[C@H]3CC[C@]12C [HTD1801] |  | 9.39 ± 1.45 | 0.7 | 1.3 | 0.8 | 1.3 |  |  |  | 188.8 ± 21.3 | 303.0 ± 99.1 | 409.9 ± 51.7 | 1.1
C[C@H](CC(=O)O)[C@H]1CC[C@H]2[C@@H]3[C@@H](O)C[C@@H]4C[C@H](O)CC[C@]4(C)[C@H]3CC[C@]12C [nor-UDCA, norursodeoxycholic acid] | 6.18 | 16.79 ± 5.48 | 1.6 | 2.1 | 2.0 | 2.5 | 12.95 | 21.82 | 20.67 | 198.3 ± 94.5 | 761.8 ± 374.2 | 683.4 ± 253.7 | 1.7
